Values of other authors as cited in patent US10934346B2, “Modified T cell comprising a polynucleotide encoding an inducible stimulating molecule comprising MyD88, CD40 and FKBP12” (priority 2014, dated 2021).

Tested on: CD40-dependent signaling cascades
Settings: mouse, in vivo; cited from earlier work

For CC[C@H](C(=O)N1CCCC[C@H]1C(=O)O[C@H](CCc1ccc(OC)c(OC)c1)c1cccc(OCC(=O)NCC(CNC(=O)COc2cccc([C@@H](CCc3ccc(OC)c(OC)c3)OC(=O)[C@@H]3CCCCN3C(=O)[C@@H](CC)c3cc(OC)c(OC)c(OC)c3)c2)CN(C)C)c1)c1cc(OC)c(OC)c(OC)c1 [AP20187], the “induction of signaling in DCs” value is listed as “led to the in vivo induction of CD40-dependent signaling cascades in murine DCs”.
